According to PubChem BioAssay AID1982 (Sanford-Burnham Center for Chemical Genomics, 2009):
Active and inactive are the calls of the source. No rule for the calls is given here.

Columns and labels:
Assay in all cases: kinase panel binding selectivity, selectivity assay, biochemical, KINOMEscan (AID 1982)
RIOK1 = details: KINOMEscan 353-kinase binding panel, qPCR, at 10 µM, active compounds read low
TAK1 = details: KINOMEscan 353-kinase binding panel, qPCR, at 10 µM, active compounds read low
[1] = molecular target: Tyrosine-protein kinase Fyn (Homo sapiens) (UniProt P06241); details: KINOMEscan 353-kinase binding panel, qPCR, at 10 µM, active compounds read low
Sequence of Tyrosine-protein kinase Fyn (Homo sapiens) (P06241 whole entry, looked up): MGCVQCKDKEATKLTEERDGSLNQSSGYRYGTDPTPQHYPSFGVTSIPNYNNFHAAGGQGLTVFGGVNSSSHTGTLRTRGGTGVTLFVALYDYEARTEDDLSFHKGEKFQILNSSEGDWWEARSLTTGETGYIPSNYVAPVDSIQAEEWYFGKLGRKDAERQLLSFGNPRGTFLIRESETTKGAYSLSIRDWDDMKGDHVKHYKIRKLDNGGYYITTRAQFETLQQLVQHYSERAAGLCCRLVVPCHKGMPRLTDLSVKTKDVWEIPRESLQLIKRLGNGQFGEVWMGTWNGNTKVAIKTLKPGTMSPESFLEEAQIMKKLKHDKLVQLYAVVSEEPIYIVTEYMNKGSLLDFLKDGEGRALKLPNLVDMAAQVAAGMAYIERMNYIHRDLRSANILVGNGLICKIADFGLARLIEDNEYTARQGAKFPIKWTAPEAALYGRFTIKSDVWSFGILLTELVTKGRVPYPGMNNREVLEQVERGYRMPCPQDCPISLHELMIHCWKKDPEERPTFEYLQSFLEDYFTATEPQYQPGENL

SNF1LK = details: KINOMEscan 353-kinase binding panel, qPCR, at 10 µM, active compounds read low
[2] = molecular target: RAC-alpha serine/threonine-protein kinase (Homo sapiens) (UniProt P31749); details: KINOMEscan 353-kinase binding panel, qPCR; AKT1; at 10 µM; active compounds read low
Sequence of RAC-alpha serine/threonine-protein kinase (Homo sapiens) (P31749 whole entry, looked up): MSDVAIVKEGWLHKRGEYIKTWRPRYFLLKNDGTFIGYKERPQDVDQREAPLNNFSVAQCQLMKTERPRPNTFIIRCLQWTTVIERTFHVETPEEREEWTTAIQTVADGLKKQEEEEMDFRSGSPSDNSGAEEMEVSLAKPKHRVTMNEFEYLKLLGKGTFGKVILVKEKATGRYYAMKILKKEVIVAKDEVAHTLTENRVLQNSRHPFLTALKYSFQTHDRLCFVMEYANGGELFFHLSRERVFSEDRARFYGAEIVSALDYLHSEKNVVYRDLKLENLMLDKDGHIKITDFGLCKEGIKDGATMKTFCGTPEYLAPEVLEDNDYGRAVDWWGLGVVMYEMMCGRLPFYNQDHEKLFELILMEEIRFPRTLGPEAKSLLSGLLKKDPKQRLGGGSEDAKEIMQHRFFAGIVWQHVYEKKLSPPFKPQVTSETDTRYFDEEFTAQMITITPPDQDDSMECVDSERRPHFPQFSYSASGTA

PIK3CB = details: KINOMEscan 353-kinase binding panel, qPCR, at 10 µM, active compounds read low
[3] = molecular target: Mitogen-activated protein kinase kinase kinase kinase 5 (Homo sapiens) (UniProt Q9Y4K4); details: KINOMEscan 353-kinase binding panel, qPCR; MAP4K5; at 10 µM; active compounds read low
BMPR1B = details: KINOMEscan 353-kinase binding panel, qPCR, at 10 µM, active compounds read low
[4] = molecular target: Hepatocyte growth factor receptor (Homo sapiens) (UniProt P08581); details: KINOMEscan 353-kinase binding panel, qPCR; MET; at 10 µM; active compounds read low
TGFBR2 = details: KINOMEscan 353-kinase binding panel, qPCR, at 10 µM, active compounds read low
[5] = molecular target: Wee1-like protein kinase 2 (Homo sapiens) (UniProt P0C1S8); details: KINOMEscan 353-kinase binding panel, qPCR; WEE2; at 10 µM; active compounds read low
Sequence of Wee1-like protein kinase 2 (Homo sapiens) (P0C1S8 whole entry, looked up, canonical isoform): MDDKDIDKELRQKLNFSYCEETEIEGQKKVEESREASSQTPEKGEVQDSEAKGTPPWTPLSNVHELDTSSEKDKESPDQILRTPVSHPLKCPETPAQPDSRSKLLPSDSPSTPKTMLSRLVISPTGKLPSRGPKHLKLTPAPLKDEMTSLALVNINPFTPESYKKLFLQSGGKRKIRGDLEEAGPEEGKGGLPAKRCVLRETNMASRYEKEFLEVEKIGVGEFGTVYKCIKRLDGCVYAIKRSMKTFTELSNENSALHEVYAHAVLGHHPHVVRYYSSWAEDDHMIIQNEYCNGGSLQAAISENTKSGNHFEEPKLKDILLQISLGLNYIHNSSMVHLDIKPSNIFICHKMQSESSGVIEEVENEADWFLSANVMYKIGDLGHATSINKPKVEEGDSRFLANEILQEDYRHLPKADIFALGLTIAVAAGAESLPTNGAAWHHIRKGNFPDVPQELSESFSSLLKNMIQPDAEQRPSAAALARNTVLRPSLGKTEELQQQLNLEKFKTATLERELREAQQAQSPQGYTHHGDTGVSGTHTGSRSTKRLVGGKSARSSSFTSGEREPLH

[6] = molecular target: Phosphorylase b kinase gamma catalytic chain, liver/testis isoform (Homo sapiens) (UniProt P15735); details: KINOMEscan 353-kinase binding panel, qPCR; PHKG2; at 10 µM; active compounds read low
Sequence of Phosphorylase b kinase gamma catalytic chain, liver/testis isoform (Homo sapiens) (P15735 whole entry, looked up, canonical isoform): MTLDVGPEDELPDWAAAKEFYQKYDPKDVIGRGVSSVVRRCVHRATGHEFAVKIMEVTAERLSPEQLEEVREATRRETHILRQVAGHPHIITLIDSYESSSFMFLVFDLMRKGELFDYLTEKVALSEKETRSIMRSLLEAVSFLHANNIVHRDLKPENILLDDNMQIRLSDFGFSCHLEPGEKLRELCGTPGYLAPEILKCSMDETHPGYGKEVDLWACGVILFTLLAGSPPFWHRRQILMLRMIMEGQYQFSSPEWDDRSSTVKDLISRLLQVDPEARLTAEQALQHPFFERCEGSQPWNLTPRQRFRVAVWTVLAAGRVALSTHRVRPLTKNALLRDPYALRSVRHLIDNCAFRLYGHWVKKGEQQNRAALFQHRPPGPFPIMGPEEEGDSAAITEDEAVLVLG

[7] = molecular target: Non-receptor tyrosine-protein kinase TYK2 (Homo sapiens) (UniProt P29597); details: KINOMEscan 353-kinase binding panel, qPCR, at 10 µM, active compounds read low
Sequence of Non-receptor tyrosine-protein kinase TYK2 (Homo sapiens) (P29597 whole entry, looked up): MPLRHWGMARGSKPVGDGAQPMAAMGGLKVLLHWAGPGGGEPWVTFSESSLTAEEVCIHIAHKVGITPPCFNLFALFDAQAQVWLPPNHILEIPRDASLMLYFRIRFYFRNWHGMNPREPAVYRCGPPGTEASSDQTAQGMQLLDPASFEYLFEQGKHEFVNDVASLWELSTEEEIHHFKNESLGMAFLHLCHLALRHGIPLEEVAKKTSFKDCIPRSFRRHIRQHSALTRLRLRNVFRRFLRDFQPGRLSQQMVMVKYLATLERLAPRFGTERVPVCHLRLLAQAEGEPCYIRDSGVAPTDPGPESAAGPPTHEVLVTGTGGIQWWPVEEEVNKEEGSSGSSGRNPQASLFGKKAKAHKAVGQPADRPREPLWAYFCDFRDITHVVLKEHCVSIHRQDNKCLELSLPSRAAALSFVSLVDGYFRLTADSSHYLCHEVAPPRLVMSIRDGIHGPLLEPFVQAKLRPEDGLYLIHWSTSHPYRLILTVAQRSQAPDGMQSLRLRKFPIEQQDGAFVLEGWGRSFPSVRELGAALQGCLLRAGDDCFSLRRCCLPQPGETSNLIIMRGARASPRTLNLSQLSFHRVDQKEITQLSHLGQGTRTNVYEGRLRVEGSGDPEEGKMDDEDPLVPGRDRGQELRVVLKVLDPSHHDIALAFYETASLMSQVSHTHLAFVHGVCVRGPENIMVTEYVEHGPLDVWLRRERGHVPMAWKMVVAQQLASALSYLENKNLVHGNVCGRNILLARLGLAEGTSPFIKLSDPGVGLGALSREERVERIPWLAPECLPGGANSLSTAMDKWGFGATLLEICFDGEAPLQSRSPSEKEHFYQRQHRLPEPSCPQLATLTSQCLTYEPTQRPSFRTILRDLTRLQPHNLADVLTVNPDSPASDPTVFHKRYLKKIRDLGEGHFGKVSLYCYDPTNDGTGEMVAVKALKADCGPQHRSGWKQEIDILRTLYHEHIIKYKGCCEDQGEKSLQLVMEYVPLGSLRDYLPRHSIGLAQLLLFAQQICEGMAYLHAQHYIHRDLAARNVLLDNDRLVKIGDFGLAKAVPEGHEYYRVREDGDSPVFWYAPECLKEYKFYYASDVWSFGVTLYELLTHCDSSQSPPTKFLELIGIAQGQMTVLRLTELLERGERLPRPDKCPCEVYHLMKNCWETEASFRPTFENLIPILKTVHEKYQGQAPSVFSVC

ERK3 = details: KINOMEscan 353-kinase binding panel, qPCR, at 10 µM, active compounds read low
MEK6 = details: KINOMEscan 353-kinase binding panel, qPCR, at 10 µM, active compounds read low
[8] = molecular target: RAF proto-oncogene serine/threonine-protein kinase (Homo sapiens) (UniProt P04049); details: KINOMEscan 353-kinase binding panel, qPCR; RAF1; at 10 µM; active compounds read low
[9] = molecular target: Tyrosine-protein kinase JAK3 (Homo sapiens) (UniProt P52333); details: KINOMEscan 353-kinase binding panel, qPCR; JAK3(Kin.Dom.2); at 10 µM; active compounds read low
Sequence of Tyrosine-protein kinase JAK3 (Homo sapiens) (P52333 whole entry, looked up): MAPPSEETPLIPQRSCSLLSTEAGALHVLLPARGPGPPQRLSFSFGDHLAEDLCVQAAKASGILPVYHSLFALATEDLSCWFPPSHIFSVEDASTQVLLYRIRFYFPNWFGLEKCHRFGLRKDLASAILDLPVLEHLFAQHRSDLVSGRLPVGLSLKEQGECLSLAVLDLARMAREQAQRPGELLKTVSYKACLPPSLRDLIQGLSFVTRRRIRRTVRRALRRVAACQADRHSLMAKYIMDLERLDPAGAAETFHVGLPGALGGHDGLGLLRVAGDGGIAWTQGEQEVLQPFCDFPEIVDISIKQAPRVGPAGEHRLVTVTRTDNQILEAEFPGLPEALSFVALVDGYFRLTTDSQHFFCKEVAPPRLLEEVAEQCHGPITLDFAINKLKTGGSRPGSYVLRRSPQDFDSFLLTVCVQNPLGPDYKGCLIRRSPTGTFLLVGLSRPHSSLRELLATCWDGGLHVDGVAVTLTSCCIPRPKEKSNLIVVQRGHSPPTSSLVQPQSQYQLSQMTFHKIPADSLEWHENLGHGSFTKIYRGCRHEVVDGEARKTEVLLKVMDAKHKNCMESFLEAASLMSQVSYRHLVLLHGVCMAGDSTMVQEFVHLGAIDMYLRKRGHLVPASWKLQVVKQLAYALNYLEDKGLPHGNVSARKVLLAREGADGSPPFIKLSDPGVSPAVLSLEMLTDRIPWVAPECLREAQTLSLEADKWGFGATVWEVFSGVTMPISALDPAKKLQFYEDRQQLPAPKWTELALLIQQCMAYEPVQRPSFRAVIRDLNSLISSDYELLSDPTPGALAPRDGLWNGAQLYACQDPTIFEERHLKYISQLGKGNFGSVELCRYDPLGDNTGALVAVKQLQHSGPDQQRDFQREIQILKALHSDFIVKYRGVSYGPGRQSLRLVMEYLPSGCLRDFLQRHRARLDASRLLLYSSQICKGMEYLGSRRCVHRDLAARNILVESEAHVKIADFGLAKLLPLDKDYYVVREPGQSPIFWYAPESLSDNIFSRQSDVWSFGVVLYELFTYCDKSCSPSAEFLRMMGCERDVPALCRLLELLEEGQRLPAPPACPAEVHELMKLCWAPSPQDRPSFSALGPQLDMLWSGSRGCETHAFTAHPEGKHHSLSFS

BMPR1A = details: KINOMEscan 353-kinase binding panel, qPCR, at 10 µM, active compounds read low
FGR = details: KINOMEscan 353-kinase binding panel, qPCR, at 10 µM, active compounds read low
[10] = molecular target: Tyrosine-protein kinase Srms (Homo sapiens) (UniProt Q9H3Y6); details: KINOMEscan 353-kinase binding panel, qPCR, at 10 µM, active compounds read low
CAMKK1 = details: KINOMEscan 353-kinase binding panel, qPCR, at 10 µM, active compounds read low
STK36 = details: KINOMEscan 353-kinase binding panel, qPCR, at 10 µM, active compounds read low
[11] = molecular target: MAP kinase-activated protein kinase 2 (Homo sapiens) (UniProt P49137); details: KINOMEscan 353-kinase binding panel, qPCR; MAPKAPK2; at 10 µM; active compounds read low
Sequence of MAP kinase-activated protein kinase 2 (Homo sapiens) (P49137 whole entry, looked up): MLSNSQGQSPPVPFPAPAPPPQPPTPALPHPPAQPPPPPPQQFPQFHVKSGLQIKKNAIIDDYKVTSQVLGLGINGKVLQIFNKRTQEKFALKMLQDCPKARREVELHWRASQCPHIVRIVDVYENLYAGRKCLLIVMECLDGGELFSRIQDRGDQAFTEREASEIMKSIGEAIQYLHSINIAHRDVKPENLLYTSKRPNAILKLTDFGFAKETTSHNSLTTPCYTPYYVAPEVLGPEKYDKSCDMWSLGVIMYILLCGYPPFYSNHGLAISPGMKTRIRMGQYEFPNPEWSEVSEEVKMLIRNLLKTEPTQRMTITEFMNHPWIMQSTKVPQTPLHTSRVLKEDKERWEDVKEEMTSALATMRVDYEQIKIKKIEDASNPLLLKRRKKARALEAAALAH

HIPK1 = details: KINOMEscan 353-kinase binding panel, qPCR, at 10 µM, active compounds read low
[12] = molecular target: High affinity nerve growth factor receptor (Homo sapiens) (UniProt P04629); details: KINOMEscan 353-kinase binding panel, qPCR; TRKA; at 10 µM; active compounds read low
MST3 = details: KINOMEscan 353-kinase binding panel, qPCR, at 10 µM, active compounds read low
[13] = molecular target: Wee1-like protein kinase (Homo sapiens) (UniProt P30291); details: KINOMEscan 353-kinase binding panel, qPCR, at 10 µM, active compounds read low
[14] = molecular target: Tyrosine-protein kinase HCK (Homo sapiens) (UniProt P08631); details: KINOMEscan 353-kinase binding panel, qPCR, at 10 µM, active compounds read low
EPHB2 = details: KINOMEscan 353-kinase binding panel, qPCR, at 10 µM, active compounds read low
PIK3CA = details: KINOMEscan 353-kinase binding panel, qPCR, at 10 µM, active compounds read low
TLK2 = details: KINOMEscan 353-kinase binding panel, qPCR, at 10 µM, active compounds read low
[15] = molecular target: 3-phosphoinositide-dependent protein kinase 1 (Homo sapiens) (UniProt O15530); details: KINOMEscan 353-kinase binding panel, qPCR; PDPK1; at 10 µM; active compounds read low
GCN2(Kin.Dom.2,S808G) = details: KINOMEscan 353-kinase binding panel, qPCR, at 10 µM, active compounds read low
ZAP70 = details: KINOMEscan 353-kinase binding panel, qPCR, at 10 µM, active compounds read low
[16] = molecular target: Casein kinase II subunit alpha (Homo sapiens) (UniProt P68400); details: KINOMEscan 353-kinase binding panel, qPCR; CSNK2A1; at 10 µM; active compounds read low
ANKK1 = details: KINOMEscan 353-kinase binding panel, qPCR, at 10 µM, active compounds read low

Measured: percent of control binding

Cc1cc2nc(NCCCO)n(CC(=O)c3cc(C(C)(C)C)c(O)c(C(C)(C)C)c3)c2cc1C
inactive: RIOK1 100% | TAK1 100% | [1] 82% | SNF1LK 100% | [2] 100% | PIK3CB 79% | [3] 83% | BMPR1B 100% | [4] 97% | TGFBR2 100% | [5] 100% | [6] 100% | [7]; TYK2 Kin.Dom.1 84% | [7]; TYK2 Kin.Dom.2 98% | ERK3 86% | MEK6 97% | [8] 43% | [9] 100% | BMPR1A 97% | FGR 100% | [10] 100% | CAMKK1 78% | STK36 100% | [11] 81% | HIPK1 100% | [12] 100% | MST3 100% | [13] 90% | [14] 93% | EPHB2 96% | PIK3CA 78% | TLK2 100% | [15] 95% | GCN2(Kin.Dom.2,S808G) 95% | ZAP70 70% | [16] 81% | ANKK1 100%
